Assay results from patent publication US11298355B2 (Aerovate Therapeutics, Inc., priority 2019, dated 2022).

Assay: Thermal stability and polymorphism of imatinib salts
Format: physicochemical
Settings: imatinib salt forms

Compound: tartrate
- thermal stability and polymorphic forms: suitable thermal stability and few or single polymorphic forms

Compound: O=S(=O)(O)CCO [isethionate]
- thermal stability and polymorphic forms: suitable thermal stability and few or single polymorphic forms

Compound: malate
- thermal stability and polymorphic forms: suitable thermal stability and few or single polymorphic forms

Compound: malonate
- thermal stability and polymorphic forms: suitable thermal stability and few or single polymorphic forms
